Non-standard residues stand in square brackets, D forms with d. Residues, ends and D or L forms follow the SMILES beside them. sY = N[C@@H](Cc1ccc(OS(=O)(=O)O)cc1)C(=O)O
Tested on: Aplysia californica
Assay: Feeding behavior (food intake) in intact animals after peptide injection
Type: in vivo
Settings: for Behavioral effect (food intake), summary grade: Table S1 summary in words; for Food intake (seaweed consumed in a single meal): injection into hemocoel of apCCK solutions (10^-7 M or 10^-6 M) vs ASW, food-deprived animals
Text: To explore the role of apCCKs as satiety signals in mollusks, we examined their effects on food intake. […] The remaining four forms had no impact (Figure S9). Moreover, [sY6, sY8]-apCCK1 slowed food consumption (Figure 2E), which could stem, in part, from a shift from ingestive to egestive patterns as the meal progressed. [sY6, sY8]-apCCK1 also extended the duration to consume one strip of seaweed compared to controls (Figure 2F), further mimicking natural satiety.
Behavioral experiments were conducted in two batches, each using animals from separate shipments. In the first batch (Figure 2), animals were larger, with an average body weight of 93.3 ± 4.8 g, and were food-deprived for 7 days prior to testing. In the second batch (Figure S9), animals were smaller (average weight: 70.6 ± 4.0 g) and were food-deprived for 5 days to account for their reduced size. In each experiment, two weight-matched animals were housed in separate round net cages (17 cm diameter and 17 cm height) that were placed in a 500 L tank filled with circulating aerated ASW (14°C–16°C). To ensure that the animals were responsive to food, they were first pretested with a small piece of seaweed. After this pretest, in each pair, one animal was injected (into the hemocoel using a syringe needle) with apCCKs freshly dissolved in 1.5 mL ASW, whereas the other was injected with 1.5 mL of ASW. Three minutes later, the feeding session commenced. Animals were hand-fed seaweed (Shirako, Tokyo, Japan) cut in 1 × 10 cm strips, weighing ~0.1 g, increasing 10-fold when hydrated. This hand-feeding approach has been used in prior study of Aplysia feeding behavior.[146],[147] The consumed seaweed amount was converted to hydrated weight and normalized to the animal’s body weight. Each strip of seaweed was delivered to the mouth area with forceps. Feeding was terminated after 1 h or when animals stopped ingesting seaweed for 3 min.

Compound	Behavioral effect (food intake), summary grade	Food intake (seaweed consumed in a single meal)
CC[C@H](C)[C@H](NC(=O)CNC(=O)[C@H](Cc1ccc(OS(=O)(=O)O)cc1)NC(=O)[C@H](CC(=O)O)NC(=O)CNC(=O)[C@H](Cc1ccc(OS(=O)(=O)O)cc1)NC(=O)[C@@H](N)CO)C(=O)NCC(=O)NCC(=O)NCC(=O)N[C@@H](CCCNC(=N)N)C(=O)N[C@@H](Cc1ccccc1)C(N)=O [[sY2, sY5]-apCCK2] (H-S[sY]GD[sY]GIGGGRF-NH2)	Weak	significant but weaker effects
CC[C@H](C)[C@H](NC(=O)CNC(=O)[C@H](Cc1ccc(O)cc1)NC(=O)[C@H](CC(=O)O)NC(=O)CNC(=O)[C@H](Cc1ccc(OS(=O)(=O)O)cc1)NC(=O)[C@@H](N)CO)C(=O)NCC(=O)NCC(=O)NCC(=O)N[C@@H](CCCNC(=N)N)C(=O)N[C@@H](Cc1ccccc1)C(N)=O [[sY2]-apCCK2] (H-S[sY]GDYGIGGGRF-NH2)	No effect	did not influence feeding
CC[C@H](C)[C@H](NC(=O)CNC(=O)[C@H](Cc1ccc(OS(=O)(=O)O)cc1)NC(=O)[C@H](CC(=O)O)NC(=O)CNC(=O)[C@H](Cc1ccc(O)cc1)NC(=O)[C@@H](N)CO)C(=O)NCC(=O)NCC(=O)NCC(=O)N[C@@H](CCCNC(=N)N)C(=O)N[C@@H](Cc1ccccc1)C(N)=O [[sY5]-apCCK2] (H-SYGD[sY]GIGGGRF-NH2)	Moderate	significant but weaker effects
H-SYGDYGIGGGRF-NH2 [apCCK2]	No effect	did not influence feeding

From PMC12535377, “Synaptic and intrinsic plasticity mediated by CCK-type signaling coordinates behavioral changes during motivational state shifts” (Cell reports, 2025)
